Assay results from US11458114B2, “Methods and compositions for enhancing synthesis secretion and transport of collagen to increase wound strength” (NORTH CELL PHARMACEUTICALS, INC., priority 2020, dated 2022).
Entries after “also recorded” stand apart in the source; their conditions may differ. Like-named read-outs stand apart in the source and are kept apart here.

Tests used:
wounds = assay: Various drugs administered on wounds with or without sodium pyruvate or SRF: erythema rating and days to total re-epithelization; conditions: for Drug in commercial formula with SRF. Days to healing / Drug in commercial formula with sodium pyruvate only. Days to healing / Drug in commercial formula Days to healing: days to total re-epithelization
Experimental: (§1) All previous studies using pyruvate to treat wounds or be used as an antioxidant used only the sodium salt form of pyruvic acid. The drug products that were tested in previous studies used 1-3% sodium pyruvate and other sodium salts of alpha keto acids by weight 1-3% concentrations in the lotions and triple antibiotic formulations. […]

non-cancerous cells = assay: Viable non-cancerous cells after incubation with anticancer drugs in various media; assay type: cell-based; set-up: Percentage of viable cells, Drugs in commercial formula with SRF: concentration or dose not given beside the values
[1] = tested on: skin laser wounds in patients; assay: Salts of pyruvate and SRF on skin laser wounds in patients: healing and irritation; conditions: for irritation or toxicity: human, in vivo; for wound healing results: same concentration of pyruvate for each salt, compared with sodium pyruvate formulations or base
Experimental: as §1

[2] = Rating 1-10, 1 most erythema, 10 no erythema
[3] = Rating 1-10, 1 most erythema, 10 no erythema, drug alone

Nc1nc2c(ncn2CCC(CO)CO)c(=O)[nH]1 [Penciclovir]
Drugs in commercial formula with SRF erythema (wounds; [2]): 8 | Drugs in commercial formula with sodium pyruvate only erythema (wounds; [2]): 7 | Drugs in commercial formula erythema (wounds; [3]): 7 | Drug in commercial formula with SRF. Days to healing (wounds): 12 days | Drug in commercial formula with sodium pyruvate only. Days to healing (wounds): 16 days | Drug in commercial formula Days to healing (wounds; drug alone): 17 days

NCc1ccc(S(N)(=O)=O)cc1 [mafenide]
Drugs in commercial formula with SRF erythema (wounds; [2]): 7 | Drugs in commercial formula with sodium pyruvate only erythema (wounds; [2]): 8 | Drugs in commercial formula erythema (wounds; [3]): 8 | Drug in commercial formula with SRF. Days to healing (wounds): 12 days | Drug in commercial formula with sodium pyruvate only. Days to healing (wounds): 14 days | Drug in commercial formula Days to healing (wounds; drug alone): 18 days

Clc1ccc(CO/N=C(\Cn2ccnc2)c2ccc(Cl)cc2Cl)c(Cl)c1 [oxiconazole]
Drugs in commercial formula with SRF erythema (wounds; [2]): 9 | Drugs in commercial formula with sodium pyruvate only erythema (wounds; [2]): 7 | Drugs in commercial formula erythema (wounds; [3]): 6 | Drug in commercial formula with SRF. Days to healing (wounds): 11 days | Drug in commercial formula with sodium pyruvate only. Days to healing (wounds): 14 days | Drug in commercial formula Days to healing (wounds; drug alone): 18 days

O=c1[nH]c(=O)n([C@H]2C[C@H](O)[C@@H](CO)O2)cc1F [floxuridine]
Percentage of viable cells after incubation with drugs (non-cancerous cells): 38% | Percentage of viable cells, Drugs in commercial formula (non-cancerous cells): 38% | Percentage of viable cells, Drugs in commercial formula sodium pyruvate without SRF (non-cancerous cells): 58% | Percentage of viable cells, Drugs in commercial formula with SRF (non-cancerous cells): 92% | Percentage of viable cells, Drugs in commercial formula with SRF repeat study (non-cancerous cells): 91%

CC(=O)C(=O)[O-].[Li+] [lithium pyruvate]
irritation or toxicity [1]: irritating and possibly toxic | wound healing results [1]: slight increases in healing; also recorded: did not produce increases in healing over the base

CN(C/C=C/c1ccccc1)Cc1cccc2ccccc12 [naftifine]
Drugs in commercial formula with SRF erythema (wounds; [2]): 7 | Drugs in commercial formula with sodium pyruvate only erythema (wounds; [2]): 6 | Drugs in commercial formula erythema (wounds; [3]): 3 | Drug in commercial formula with SRF. Days to healing (wounds): 13 days | Drug in commercial formula with sodium pyruvate only. Days to healing (wounds): 14 days | Drug in commercial formula Days to healing (wounds; drug alone): 20 days

CC(=O)C(=O)[O-].[Na+] [sodium salt of pyruvic acid, sodium pyruvate]
irritation or toxicity [1]: no irritation | wound healing results [1]: enhanced healing

CC1=C(/C=C/C(C)=C/C=C/C(C)=C/CO)C(C)(C)CCC1 [Retinol]
Drugs in commercial formula with SRF erythema (wounds; [2]): 7 | Drugs in commercial formula with sodium pyruvate only erythema (wounds; [2]): 3 | Drugs in commercial formula erythema (wounds; [3]): 1 | Drug in commercial formula with SRF. Days to healing (wounds): 9 days | Drug in commercial formula with sodium pyruvate only. Days to healing (wounds): 15 days | Drug in commercial formula Days to healing (wounds; drug alone): 19 days

CC(=O)OCC(CCn1cnc2cnc(N)nc21)COC(C)=O [Famciclovir]
Drugs in commercial formula with SRF erythema (wounds; [2]): 7 | Drugs in commercial formula with sodium pyruvate only erythema (wounds; [2]): 6 | Drugs in commercial formula erythema (wounds; [3]): 5 | Drug in commercial formula with SRF. Days to healing (wounds): 12 days | Drug in commercial formula with sodium pyruvate only. Days to healing (wounds): 14 days | Drug in commercial formula Days to healing (wounds; drug alone): 17 days

CN(Cc1ccc(C(C)(C)C)cc1)Cc1cccc2ccccc12 [butenafine]
Drugs in commercial formula with SRF erythema (wounds; [2]): 5 | Drugs in commercial formula with sodium pyruvate only erythema (wounds; [2]): 4 | Drugs in commercial formula erythema (wounds; [3]): 3 | Drug in commercial formula with SRF. Days to healing (wounds): 16 days | Drug in commercial formula with sodium pyruvate only. Days to healing (wounds): 18 days | Drug in commercial formula Days to healing (wounds; drug alone): 21 days

Clc1ccccc1C(c1ccccc1)(c1ccccc1)n1ccnc1 [Chlotrimizole]
Drug in commercial formula with SRF. Days to healing (wounds): 11 days | Drug in commercial formula with sodium pyruvate only. Days to healing (wounds): 15 days | Drug in commercial formula Days to healing (wounds; drug alone): 22 days | Drugs in commercial formula erythema (wounds; in vivo): 4 | Drugs in commercial formula with SRF erythema (wounds; in vivo): 8 | Drugs in commercial formula with sodium pyruvate only erythema (wounds; in vivo): 6

N.N.O=C([O-])C1(C(=O)[O-])CCC1.[Pt+2] [Carboplatin]
Percentage of viable cells, Drugs in commercial formula (non-cancerous cells): 50% | Percentage of viable cells, Drugs in commercial formula sodium pyruvate without SRF (non-cancerous cells): 56% | Percentage of viable cells, Drugs in commercial formula with SRF (non-cancerous cells): 87% | Percentage of viable cells after incubation with drugs (non-cancerous cells; drug): 42% | Percentage of viable cells, Drugs in commercial formula with SRF repeat study (non-cancerous cells; repeat study): 97%

O=C1[O][Pt]2([NH][C@@H]3CCCC[C@H]3[NH]2)[O]C1=O [oxaliplatin]
Percentage of viable cells, Drugs in commercial formula (non-cancerous cells): 24% | Percentage of viable cells, Drugs in commercial formula sodium pyruvate without SRF (non-cancerous cells): 41% | Percentage of viable cells, Drugs in commercial formula with SRF (non-cancerous cells): 95% | Percentage of viable cells after incubation with drugs (non-cancerous cells; drug): 23% | Percentage of viable cells, Drugs in commercial formula with SRF repeat study (non-cancerous cells; repeat study): 98%

CC[C@H]1OC(=O)[C@H](C)[C@@H](O[C@H]2C[C@@](C)(OC)[C@@H](O)[C@H](C)O2)[C@H](C)[C@@H](O[C@@H]2O[C@H](C)C[C@H](N(C)C)[C@H]2O)[C@](C)(O)C[C@@H](C)C(=O)[C@H](C)[C@@H](O)[C@]1(C)O [erythromycin]
Drugs in commercial formula with SRF erythema (wounds; [2]): 8 | Drugs in commercial formula with sodium pyruvate only erythema (wounds; [2]): 5 | Drugs in commercial formula erythema (wounds; [3]): 6 | Drug in commercial formula with SRF. Days to healing (wounds): 9 days | Drug in commercial formula with sodium pyruvate only. Days to healing (wounds): 13 days | Drug in commercial formula Days to healing (wounds; drug alone): 19 days

CC(C)(C#N)c1cc(Cn2cncn2)cc(C(C)(C)C#N)c1 [anastrozole]
Percentage of viable cells after incubation with drugs (non-cancerous cells): 24% | Percentage of viable cells, Drugs in commercial formula (non-cancerous cells): 25% | Percentage of viable cells, Drugs in commercial formula sodium pyruvate without SRF (non-cancerous cells): 50% | Percentage of viable cells, Drugs in commercial formula with SRF (non-cancerous cells): 86% | Percentage of viable cells, Drugs in commercial formula with SRF repeat study (non-cancerous cells): 94%

CC(=O)N1CCN(c2ccc(OCC3COC(Cn4ccnc4)(c4ccc(Cl)cc4Cl)O3)cc2)CC1 (stereo not drawn) [ketoconazole]
Drugs in commercial formula with SRF erythema (wounds; [2]): 8 | Drugs in commercial formula with sodium pyruvate only erythema (wounds; [2]): 6 | Drugs in commercial formula erythema (wounds; [3]): 3 | Drug in commercial formula with SRF. Days to healing (wounds): 14 days | Drug in commercial formula with sodium pyruvate only. Days to healing (wounds): 20 days | Drug in commercial formula Days to healing (wounds; drug alone): 23 days

C[C@@H]1[C@H](O)[C@@H](C)/C=C/C=C/CC/C=C/C=C/C=C/C=C/C(O[C@H]2O[C@H](C)[C@@H](O)[C@H](N)[C@@H]2O)CC2O[C@](O)(CC(O)C(O)CCC(O)CC(O)CC(O)CC(=O)O[C@H]1C)CC(O)C2C(=O)O (stereo partly drawn) [nystatin]
Drugs in commercial formula with SRF erythema (wounds; [2]): 8 | Drugs in commercial formula with sodium pyruvate only erythema (wounds; [2]): 6 | Drugs in commercial formula erythema (wounds; [3]): 2 | Drug in commercial formula with SRF. Days to healing (wounds): 12 days | Drug in commercial formula with sodium pyruvate only. Days to healing (wounds): 14 days | Drug in commercial formula Days to healing (wounds; drug alone): 17 days

microazole
Drug in commercial formula with SRF. Days to healing (wounds): 11 days | Drug in commercial formula with sodium pyruvate only. Days to healing (wounds): 12 days | Drug in commercial formula Days to healing (wounds; drug alone): 19 days | Drugs in commercial formula erythema (wounds; in vivo): 5 | Drugs in commercial formula with SRF erythema (wounds; in vivo): 7 | Drugs in commercial formula with sodium pyruvate only erythema (wounds; in vivo): 6

Cc1cc(C2CCCCC2)n(O)c(=O)c1 [ciclopirox]
Drugs in commercial formula with SRF erythema (wounds; [2]): 9 | Drugs in commercial formula with sodium pyruvate only erythema (wounds; [2]): 5 | Drugs in commercial formula erythema (wounds; [3]): 4 | Drug in commercial formula with SRF. Days to healing (wounds): 9 days | Drug in commercial formula with sodium pyruvate only. Days to healing (wounds): 11 days | Drug in commercial formula Days to healing (wounds; drug alone): 20 days

Clc1ccc(CSC(Cn2ccnc2)c2ccc(Cl)cc2Cl)cc1 (stereo not drawn) [sulconazole]
Drugs in commercial formula with SRF erythema (wounds; [2]): 8 | Drugs in commercial formula with sodium pyruvate only erythema (wounds; [2]): 6 | Drugs in commercial formula erythema (wounds; [3]): 4 | Drug in commercial formula with SRF. Days to healing (wounds): 11 days | Drug in commercial formula with sodium pyruvate only. Days to healing (wounds): 15 days | Drug in commercial formula Days to healing (wounds; drug alone): 20 days

Clc1ccc(COC(Cn2ccnc2)c2ccc(Cl)cc2Cl)cc1 (stereo not drawn) [econazole]
Drugs in commercial formula with SRF erythema (wounds; [2]): 6 | Drugs in commercial formula with sodium pyruvate only erythema (wounds; [2]): 6 | Drugs in commercial formula erythema (wounds; [3]): 6 | Drug in commercial formula with SRF. Days to healing (wounds): 14 days | Drug in commercial formula with sodium pyruvate only. Days to healing (wounds): 17 days | Drug in commercial formula Days to healing (wounds; drug alone): 19 days

CC(C)[C@H](N)C(=O)OCCOCn1cnc2c(=O)[nH]c(N)nc21 [valaciclovir]
Drugs in commercial formula with SRF erythema (wounds; [2]): 8 | Drugs in commercial formula with sodium pyruvate only erythema (wounds; [2]): 8 | Drugs in commercial formula erythema (wounds; [3]): 8 | Drug in commercial formula with SRF. Days to healing (wounds): 14 days | Drug in commercial formula with sodium pyruvate only. Days to healing (wounds): 17 days | Drug in commercial formula Days to healing (wounds; drug alone): 18 days

aluminum pyruvate
wound healing results [1]: slight increases in healing; also recorded: did not produce increases in healing over the base

manganese pyruvate
wound healing results [1]: slight increases in healing; also recorded: did not produce increases in healing over the base

Bleomycin
Percentage of viable cells, Drugs in commercial formula (non-cancerous cells): 33% | Percentage of viable cells, Drugs in commercial formula sodium pyruvate without SRF (non-cancerous cells): 47% | Percentage of viable cells, Drugs in commercial formula with SRF (non-cancerous cells): 98% | Percentage of viable cells after incubation with drugs (non-cancerous cells; drug): 31% | Percentage of viable cells, Drugs in commercial formula with SRF repeat study (non-cancerous cells; repeat study): 98%

CN(Cc1cnc2nc(N)nc(N)c2n1)c1ccc(C(=O)N[C@@H](CCC(=O)O)C(=O)O)cc1 [methotrexate]
Percentage of viable cells, Drugs in commercial formula (non-cancerous cells): 43% | Percentage of viable cells, Drugs in commercial formula sodium pyruvate without SRF (non-cancerous cells): 68% | Percentage of viable cells, Drugs in commercial formula with SRF (non-cancerous cells): 94% | Percentage of viable cells after incubation with drugs (non-cancerous cells; drug): 42% | Percentage of viable cells, Drugs in commercial formula with SRF repeat study (non-cancerous cells; repeat study): 98%

Bevacizumab
Percentage of viable cells after incubation with drugs (non-cancerous cells): 21% | Percentage of viable cells, Drugs in commercial formula (non-cancerous cells): 27% | Percentage of viable cells, Drugs in commercial formula sodium pyruvate without SRF (non-cancerous cells): 40% | Percentage of viable cells, Drugs in commercial formula with SRF repeat study (non-cancerous cells): 87%

Cc1cccc(N(C)C(=S)Oc2ccc3ccccc3c2)c1 [tolnaftate]
Drugs in commercial formula with SRF erythema (wounds; [2]): 7 | Drugs in commercial formula with sodium pyruvate only erythema (wounds; [2]): 7 | Drugs in commercial formula erythema (wounds; [3]): 7 | Drug in commercial formula with SRF. Days to healing (wounds): 10 days | Drug in commercial formula with sodium pyruvate only. Days to healing (wounds): 13 days | Drug in commercial formula Days to healing (wounds; drug alone): 21 days

CC(=O)C(=O)O.N [ammonium pyruvate]
irritation or toxicity [1]: irritating and possibly toxic | wound healing results [1]: slight increases in healing; also recorded: did not produce increases in healing over the base
